In brackets after ≈: the same amount, converted by molar mass. Some results are limits rather than exact numbers.

Assay [1] deals with Enterobacter cloacae. Put plainly: Antibacterial activity against Enterobactor cloacae 1321E. The assay is classed as functional.
Assay [2] concerns Staphylococcus aureus. Put plainly: Antibacterial activity against Staphylococcus aureus SG511. The assay is classed as functional.
In assay [3] the test system is Klebsiella aerogenes. Put plainly: Antibacterial activity against Klebsiella aerogenes 1522E. It counts as functional.
The test system of assay [4] is Streptococcus pyogenes. Put plainly: Antibacterial activity against Streptococcus pyogenes 308A. It counts as functional.
For assay [5], the system named is Escherichia coli. Put plainly: Antibacterial activity against Escherichia coli DC2. The assay is classed as functional.
The subject of assay [6] is Staphylococcus aureus. Put plainly: Antibacterial activity against Staphylococcus aureus 285. The assay is classed as functional.
The subject of assay [7] is Pseudomonas aeruginosa. Put plainly: Antibacterial activity against Pseudomonas aeruginosa 9027. The assay is classed as functional.
The test system of assay [8] is Salmonella typhimurium. Put plainly: Antibacterial activity against Salmonella Typhimurium. The settings on record: Salmonella enterica. The assay is classed as functional, Salmonella enterica subsp. enterica serovar Typhimurium.
Assay [9] has as its system Escherichia coli. Put plainly: Antibacterial activity against Escherichia coli TEM. It counts as functional.
Assay [10] relates to Streptococcus pyogenes. Put plainly: Antibacterial activity against Streptococcus pyogenes 77A. The assay is classed as functional.
In assay [11] the test system is Streptococcus agalactiae. Put plainly: Antibacterial activity against Streptococcus agalactiae B. It counts as functional.
The subject of assay [12] is Salmonella typhi. Put plainly: Antibacterial activity against Salmonella typhi. It counts as functional, Salmonella enterica subsp. enterica serovar Typhi. The settings on record: Salmonella enterica.
Assay [13] has as its system Micrococcus luteus. Put plainly: Antibacterial activity against Micrococcus luteus ATCC 9341. The assay is classed as functional.
The test system of assay [14] is Escherichia coli. Put plainly: Antibacterial activity against Escherichia coli 086. It counts as functional.
Assay [15] deals with Providencia rettgeri. Put plainly: Antibacterial activity against Proteus rettgeri 936. The assay is classed as functional.
Assay [16] relates to Escherichia coli. Put plainly: Antibacterial activity against Escherichia coli 0126. It counts as functional.
Assay [17] relates to Escherichia coli. Put plainly: Antibacterial activity against Escherichia coil V6311/65. The assay is classed as functional.
In assay [18] the test system is Escherichia coli. Put plainly: Antibacterial activity against Escherichia coil 1507. It counts as functional.
The subject of assay [19] is Staphylococcus aureus. Put plainly: Antibacterial activity against Staphylococcus aureus 209P. It counts as functional.
Assay [20] has as its system Corynebacterium diphtheriae. Put plainly: Antibacterial activity against Corynebacterium diphtheriae. It counts as functional.
The subject of assay [21] is Enterobacter cloacae. Put plainly: Antibacterial activity against Enterobacter cloacae 417. It counts as functional.
The subject of assay [22] is Serratia marcescens. Put plainly: Antibacterial activity against Serratia marcescens 14273. It counts as functional.
Assay [23] relates to Escherichia coli. Put plainly: Antibacterial activity against Escherichia coli 0114. The assay is classed as functional.
The test system of assay [24] is Enterobacter cloacae. Put plainly: Antibacterial activity against Enterobacter cloacae. It counts as functional.
For assay [25], the system named is Enterococcus faecium. Put plainly: Antibacterial activity against Streptococcus faecium 77A. The assay is classed as functional.
The nature of assay [26]: Antibacterial activity against Salmonella give. It counts as functional, Salmonella enterica subsp. enterica serovar Give. The settings on record: Salmonella enterica.
In assay [27] the test system is Staphylococcus aureus. Put plainly: Antibacterial activity against Staphylococcus aureus 503. The assay is classed as functional.
For assay [28], the system named is Proteus mirabilis. Put plainly: Antibacterial activity against Proteus mirabilis 112/3. It counts as functional.
The subject of assay [29] is Enterococcus durans. Put plainly: Antibacterial activity against Streptococcus durans D. The assay is classed as functional.
In assay [30] the test system is Salmonella. Put plainly: Antibacterial activity against Salmonella orion. The assay is classed as functional.
The subject of assay [31] is Pseudomonas aeruginosa. Put plainly: Antibacterial activity against Pseudomonas aeruginosa 880/2. The assay is classed as functional.
In assay [32] the test system is Serratia marcescens. Put plainly: Antibacterial activity against Serratia marcescens 6093. The assay is classed as functional.
The test system of assay [33] is Bacillus subtilis. Put plainly: Antibacterial activity against Bacillus subtilts ATCC 6633. The assay is classed as functional.
Assay [34] deals with Priestia megaterium. Put plainly: Antibacterial activity against Bacillus megaterium. The assay is classed as functional.
For assay [35], the system named is Pseudomonas aeruginosa. Put plainly: Antibacterial activity against Pseudomonas aeruginosa 110/2. The assay is classed as functional.
Assay [36] can be described thus: Antibacterial activity against Salmonella oranienberg. The assay is classed as functional, Salmonella enterica subsp. enterica serovar Oranienburg. The settings on record: Salmonella enterica.
The test system of assay [37] is Staphylococcus aureus. Put plainly: Antibacterial activity against Staphylococcus aureus giorgio. The assay is classed as functional.
In assay [38] the test system is Proteus mirabilis. Put plainly: Antibacterial activity against Proteus mirabilis 174/3. It counts as functional.
Assay [39] relates to Burkholderia cepacia. Put plainly: Antibacterial activity against Pseudomonas cepacia. It counts as functional.
The test system of assay [40] is Pseudomonas aeruginosa. Put plainly: Antibacterial activity against Pseudomonas aeruginosa 77/2. The assay is classed as functional.
Assay [41] deals with Providencia rettgeri. Put plainly: Antibacterial activity against Proteus rettgeri 937. It counts as functional.
In assay [42] the test system is Proteus vulgaris. Put plainly: Antibacterial activity against Proteus vulgaris 868. It counts as functional.
Assay [43] concerns Pasteurella multocida. Put plainly: Antibacterial activity against Pasteurella multocida. The assay is classed as functional.
For assay [44], the system named is Trueperella pyogenes. Put plainly: Antibacterial activity against Corynebacterium pyogenes. It counts as functional.
Assay [45] concerns Serratia marcescens. Put plainly: Antibacterial activity against Serratia marcescens 370. It counts as functional.
Assay [46] concerns Klebsiella pneumoniae. Put plainly: Antibacterial activity against Klebsiella pneumonise 477. The assay is classed as functional.

With `CO/N=C(\CNS(C)(=O)=O)[C@@H]1C[C@H](SC2=C(C(=O)O)N3C(=O)[C@H]([C@@H](C)O)[C@H]3[C@H]2C)CN1`, the MIC (as a rule, the lowest concentration that inhibits growth of the organism) came to 0.391 µg/mL (≈ 0.82 µM) in assay [1]; 0.195 µg/mL (≈ 0.409 µM) in assay [2]; 0.781 µg/mL (≈ 1.64 µM) in [3]; 0.098 µg/mL (≈ 0.206 µM) in assay [4]; 0.195 µg/mL (≈ 0.409 µM) in [5]; 0.391 µg/mL (≈ 0.82 µM) in [6]. Further, the minimal inhibitory concentration (MIC) in assay [7] is 12.5 µg/mL (≈ 26.2 µM); in assay [8], 0.781 µg/mL (≈ 1.64 µM); in assay [9] it was 0.195 µg/mL (≈ 0.409 µM); in [10], 0.098 µg/mL (≈ 0.206 µM).

Regarding `CNS(=O)(=O)NC/C(=N\OC)[C@@H]1C[C@H](SC2=C(C(=O)O)N3C(=O)[C@H]([C@@H](C)O)[C@H]3[C@H]2C)CN1`, the minimal inhibitory concentration (MIC) came to 0.03 µg/mL (≈ 0.061 µM) in assay [11]; 0.03 µg/mL (≈ 0.061 µM) in assay [12]; 0.013 µg/mL (≈ 0.0264 µM) in assay [1]; 0.049 µg/mL (≈ 0.0997 µM) in assay [2]; 0.01 µg/mL (≈ 0.0203 µM) in assay [13]; 0.03 µg/mL (≈ 0.061 µM) in [14]. Moreover, the MIC in assay [15] was 0.4 µg/mL (≈ 0.814 µM); in assay [16], 0.03 µg/mL (≈ 0.061 µM); in [17], 0.05 µg/mL (≈ 0.102 µM); in assay [18], 0.05 µg/mL (≈ 0.102 µM); in assay [19], 0.03 µg/mL (≈ 0.061 µM); in assay [20], 0.01 µg/mL (≈ 0.0203 µM). Also, the MIC in [3] was 0.025 µg/mL (≈ 0.0509 µM); in assay [21], 0.05 µg/mL (≈ 0.102 µM); in assay [22] it was 0.4 µg/mL (≈ 0.814 µM); in assay [4] it was less than 0.01 µg/mL; in [23] it was 0.03 µg/mL (≈ 0.061 µM); in [5] it was 0.013 µg/mL (≈ 0.0264 µM). The MIC in [24] was 0.01 µg/mL (≈ 0.0203 µM); in assay [6], 0.098 µg/mL (≈ 0.199 µM); in [25], less than 0.01 µg/mL; in assay [26], 0.1 µg/mL (≈ 0.203 µM); in [27] it was 0.03 µg/mL (≈ 0.061 µM); in [7] it was 1.56 µg/mL (≈ 3.17 µM). The MIC in assay [28] stood at 0.2 µg/mL (≈ 0.407 µM); in assay [29], 0.1 µg/mL (≈ 0.203 µM); in assay [30], 0.1 µg/mL (≈ 0.203 µM); in assay [31] it was 0.4 µg/mL (≈ 0.814 µM); in [8], 0.025 µg/mL (≈ 0.0509 µM); in [32] it was 0.2 µg/mL (≈ 0.407 µM). In addition, the MIC in [33] worked out at 0.03 µg/mL (≈ 0.061 µM); in [9] it was 0.025 µg/mL (≈ 0.0509 µM); in assay [34], 0.05 µg/mL (≈ 0.102 µM); in assay [35] it was 0.8 µg/mL (≈ 1.63 µM); in assay [36], 0.2 µg/mL (≈ 0.407 µM); in [37], 0.03 µg/mL (≈ 0.061 µM). The MIC in assay [10] is less than 0.01 µg/mL; in [38] it was 0.2 µg/mL (≈ 0.407 µM); in [39], 0.4 µg/mL (≈ 0.814 µM); in assay [40] it was 1.56 µg/mL (≈ 3.17 µM); in [41] it was 0.4 µg/mL (≈ 0.814 µM); in assay [42] it was 0.4 µg/mL (≈ 0.814 µM). Besides, the minimum inhibitory concentration (MIC) was determined as 0.05 µg/mL (≈ 0.102 µM) in [43], 0.01 µg/mL (≈ 0.0203 µM) in [44], 0.2 µg/mL (≈ 0.407 µM) in [45] and 0.03 µg/mL (≈ 0.061 µM) in assay [46].

For the compound `CO/N=C(\CNC(C)=O)[C@@H]1C[C@H](SC2=C(C(=O)O)N3C(=O)[C@H]([C@@H](C)O)[C@H]3[C@H]2C)CN1`, the MIC in [1] worked out at 0.013 µg/mL (≈ 0.0295 µM); in assay [2], 0.049 µg/mL (≈ 0.111 µM); in assay [3], 0.049 µg/mL (≈ 0.111 µM); in [4], 0.013 µg/mL (≈ 0.0295 µM); in [5] it was 0.025 µg/mL (≈ 0.0568 µM); in assay [6] it was 0.098 µg/mL (≈ 0.222 µM). Also, the minimum inhibitory concentration (MIC) was 1.56 µg/mL (≈ 3.54 µM) in assay [7], 0.049 µg/mL (≈ 0.111 µM) in assay [8], 0.025 µg/mL (≈ 0.0568 µM) in assay [9] and less than 0.01 µg/mL in assay [10].

Values taken from ChEMBL document CHEMBL1143804, “Synthesis and antibacterial evaluation of 1beta-methyl-2-[5-(1-methoxyimino-2-substituted sulfonamide ethyl)pyrrolidin-3-ylthio]carbapenems and their related compounds” (2007).
